Our source for the remaining binding values is patent US10870647B2, “Imidazopyridine derivative, method for preparing same, and pharmaceutical composition containing same as active ingredient for preventing or treating cancer” (DAEGU-GYEONGBUK MEDICAL INNOVATION FOUNDATION, priority 2016, dated 2020).

Holding throughout (test): Kinase selectivity, scanMAX Kinase assay panel (DiscoverX), % control at 1 uM
What all share (assay type): binding

The target in assay [1] is T1, scanMAX Kinase assay panel (Homo sapiens, UniProt Q56UN5).
T1 construct: purchased DiscoverX
T1 sequence (Q56UN5 1-1328): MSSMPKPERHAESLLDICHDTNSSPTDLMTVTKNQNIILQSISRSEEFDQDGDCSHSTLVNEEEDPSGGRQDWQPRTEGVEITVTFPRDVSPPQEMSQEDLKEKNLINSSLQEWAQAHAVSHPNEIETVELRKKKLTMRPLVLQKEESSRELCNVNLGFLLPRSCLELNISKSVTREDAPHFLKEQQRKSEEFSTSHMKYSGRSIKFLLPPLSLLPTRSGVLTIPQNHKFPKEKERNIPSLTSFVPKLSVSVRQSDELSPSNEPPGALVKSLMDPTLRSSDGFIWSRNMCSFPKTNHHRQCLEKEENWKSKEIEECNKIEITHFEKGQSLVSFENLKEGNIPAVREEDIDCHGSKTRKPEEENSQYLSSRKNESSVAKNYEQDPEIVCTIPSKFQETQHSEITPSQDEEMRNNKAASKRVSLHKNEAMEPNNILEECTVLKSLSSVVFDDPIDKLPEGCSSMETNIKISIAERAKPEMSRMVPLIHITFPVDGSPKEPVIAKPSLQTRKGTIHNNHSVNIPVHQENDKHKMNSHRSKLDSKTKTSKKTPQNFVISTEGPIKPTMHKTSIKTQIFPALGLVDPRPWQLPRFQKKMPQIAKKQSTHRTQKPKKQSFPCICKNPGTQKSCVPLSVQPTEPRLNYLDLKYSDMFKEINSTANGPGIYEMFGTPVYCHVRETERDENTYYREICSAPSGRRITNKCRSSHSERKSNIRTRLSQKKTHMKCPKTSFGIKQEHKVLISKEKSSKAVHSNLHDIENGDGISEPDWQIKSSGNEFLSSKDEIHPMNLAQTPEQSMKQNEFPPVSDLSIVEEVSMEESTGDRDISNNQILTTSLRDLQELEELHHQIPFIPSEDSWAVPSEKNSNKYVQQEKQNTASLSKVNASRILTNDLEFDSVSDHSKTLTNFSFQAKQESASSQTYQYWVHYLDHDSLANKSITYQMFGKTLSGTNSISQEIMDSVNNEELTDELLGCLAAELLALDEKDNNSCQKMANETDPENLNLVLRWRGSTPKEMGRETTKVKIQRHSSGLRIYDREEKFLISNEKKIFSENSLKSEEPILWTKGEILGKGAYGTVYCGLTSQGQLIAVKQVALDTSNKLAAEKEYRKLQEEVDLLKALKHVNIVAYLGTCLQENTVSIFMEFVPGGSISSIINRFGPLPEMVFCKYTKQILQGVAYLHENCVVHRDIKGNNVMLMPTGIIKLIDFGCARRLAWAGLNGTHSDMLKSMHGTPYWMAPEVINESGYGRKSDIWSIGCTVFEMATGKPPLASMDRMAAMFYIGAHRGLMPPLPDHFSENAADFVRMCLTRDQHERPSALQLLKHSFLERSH
The following applies: YSK4; 1 uM; read-out: Percent Control (%). Summed up:
(§1)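 Binding across the scanMAX kinase panel was tested at 1 uM compound. % control = (compound − positive control)/(negative control − positive control) × 100; below 35 counted as active.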

Assay [2] has as its target T2, scanMAX Kinase assay panel (Homo sapiens, UniProt P50750).
T2 construct: purchased DiscoverX
The following applies: CDK9; 1 uM; read-out: Percent Control (%). The essentials:
as §1

The target in assay [3] is T3, scanMAX Kinase assay panel (Homo sapiens, UniProt O15146).
T3 construct: purchased DiscoverX
T3 sequence (O15146 24-869): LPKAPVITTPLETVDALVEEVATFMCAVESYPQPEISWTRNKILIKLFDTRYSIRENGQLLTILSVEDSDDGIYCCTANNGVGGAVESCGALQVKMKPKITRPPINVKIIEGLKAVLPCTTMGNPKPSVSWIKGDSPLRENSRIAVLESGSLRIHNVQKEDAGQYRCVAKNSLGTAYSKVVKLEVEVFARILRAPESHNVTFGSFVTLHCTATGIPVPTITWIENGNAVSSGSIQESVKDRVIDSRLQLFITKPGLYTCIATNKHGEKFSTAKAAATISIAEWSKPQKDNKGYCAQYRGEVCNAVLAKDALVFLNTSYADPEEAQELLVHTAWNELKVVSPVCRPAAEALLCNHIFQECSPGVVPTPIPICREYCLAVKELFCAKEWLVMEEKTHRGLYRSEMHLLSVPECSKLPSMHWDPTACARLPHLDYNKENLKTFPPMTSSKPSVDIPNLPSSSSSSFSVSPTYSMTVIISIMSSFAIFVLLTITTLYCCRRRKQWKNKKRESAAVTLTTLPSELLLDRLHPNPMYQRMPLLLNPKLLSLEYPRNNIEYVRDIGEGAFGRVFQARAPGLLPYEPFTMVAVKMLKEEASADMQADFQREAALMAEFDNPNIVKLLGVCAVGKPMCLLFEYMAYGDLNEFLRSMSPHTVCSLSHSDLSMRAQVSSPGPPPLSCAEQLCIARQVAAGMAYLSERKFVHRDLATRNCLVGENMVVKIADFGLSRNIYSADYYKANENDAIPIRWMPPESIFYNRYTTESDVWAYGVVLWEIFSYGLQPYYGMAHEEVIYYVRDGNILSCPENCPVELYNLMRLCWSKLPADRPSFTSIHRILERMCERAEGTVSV
The following applies: MUSK; 1 uM; read-out: Percent Control (%). The essentials: as §1

T2 sequence (P50750 whole entry): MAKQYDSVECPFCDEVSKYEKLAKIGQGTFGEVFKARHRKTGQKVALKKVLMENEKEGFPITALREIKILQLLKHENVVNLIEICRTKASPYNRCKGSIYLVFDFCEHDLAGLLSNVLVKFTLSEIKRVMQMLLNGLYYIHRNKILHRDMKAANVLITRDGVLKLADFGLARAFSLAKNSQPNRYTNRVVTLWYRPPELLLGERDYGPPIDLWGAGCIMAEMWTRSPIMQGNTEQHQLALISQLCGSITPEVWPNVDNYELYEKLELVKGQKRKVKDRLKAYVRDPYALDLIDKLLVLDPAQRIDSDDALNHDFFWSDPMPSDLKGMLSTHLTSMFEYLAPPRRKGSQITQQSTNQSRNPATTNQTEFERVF

Take `Cc1ccc(C(=O)Nc2ccc(CN3CCN(C)CC3)c(C(F)(F)F)c2)cc1C#Cc1cnc2c(Nc3cnn(C)c3)cccn12` [Example 1, 4-methyl-3-((8-((1-methyl-1H-pyrazol-4-yl)amino)imidazo[1,2-a]pyridin-3-yl)ethynyl)-N-(4-((4-methylpiperazin-1-yl)methyl)-3-(trifluoromethyl)phenyl)benzamide]: the remaining binding at 1 µM in assay [1] came to 2%; in assay [2] it was 72%; in assay [3], 1%.
In the case of `Cc1cn(-c2cc(NC(=O)c3ccc(C)c(C#Cc4cnc5c(Nc6cnn(C)c6)cccn45)c3)cc(C(F)(F)F)c2)cn1` [Example 12, 4-methyl-N-(3-(4-methyl-1H-imidazol-1-yl)-5-(trifluoromethyl)phenyl)-3-((8-((1-methyl-1H-pyrazol-4-yl)amino)imidazo[1,2-a]pyridin-3-yl)ethynyl)benzamide], the remaining binding at 1 µM was found to be 2% in assay [1], 88% in assay [2] and 21% in assay [3].
Take `Cc1ccc(NC(=O)C2(C(=O)Nc3ccc(F)cc3)CC2)cc1C#Cc1cnc2c(Nc3cnn(C(C)C)c3)cccn12` [Example 78]: the figures for the remaining binding at 1 µM in assay [1], in assay [2] and in assay [3] were 71%, 100% and 63%, respectively.
